SMILES strings stand for the structures. Like-named read-outs stand apart in the source and are kept apart here. A value given as a limit tells only on which side of the number the result lay.

By IC50 is commonly meant the concentration that inhibits the measured activity by half.

One test concerns the target purified human C5 (Homo sapiens, UniProt P01031). The experiment in a line: Red blood cell (RBC) hemolysis assay, optical, absorbance 412 nm (Example 10, Table 19). It is filed as cell-based. Particulars: antibody-sensitized sheep erythrocytes, […] human C5 depleted sera.
The next test deals with T1, Human C5 (Homo sapiens, UniProt P01031).
T1 construct: purchased Complement Technology
T1 sequence (P01031 19-1676): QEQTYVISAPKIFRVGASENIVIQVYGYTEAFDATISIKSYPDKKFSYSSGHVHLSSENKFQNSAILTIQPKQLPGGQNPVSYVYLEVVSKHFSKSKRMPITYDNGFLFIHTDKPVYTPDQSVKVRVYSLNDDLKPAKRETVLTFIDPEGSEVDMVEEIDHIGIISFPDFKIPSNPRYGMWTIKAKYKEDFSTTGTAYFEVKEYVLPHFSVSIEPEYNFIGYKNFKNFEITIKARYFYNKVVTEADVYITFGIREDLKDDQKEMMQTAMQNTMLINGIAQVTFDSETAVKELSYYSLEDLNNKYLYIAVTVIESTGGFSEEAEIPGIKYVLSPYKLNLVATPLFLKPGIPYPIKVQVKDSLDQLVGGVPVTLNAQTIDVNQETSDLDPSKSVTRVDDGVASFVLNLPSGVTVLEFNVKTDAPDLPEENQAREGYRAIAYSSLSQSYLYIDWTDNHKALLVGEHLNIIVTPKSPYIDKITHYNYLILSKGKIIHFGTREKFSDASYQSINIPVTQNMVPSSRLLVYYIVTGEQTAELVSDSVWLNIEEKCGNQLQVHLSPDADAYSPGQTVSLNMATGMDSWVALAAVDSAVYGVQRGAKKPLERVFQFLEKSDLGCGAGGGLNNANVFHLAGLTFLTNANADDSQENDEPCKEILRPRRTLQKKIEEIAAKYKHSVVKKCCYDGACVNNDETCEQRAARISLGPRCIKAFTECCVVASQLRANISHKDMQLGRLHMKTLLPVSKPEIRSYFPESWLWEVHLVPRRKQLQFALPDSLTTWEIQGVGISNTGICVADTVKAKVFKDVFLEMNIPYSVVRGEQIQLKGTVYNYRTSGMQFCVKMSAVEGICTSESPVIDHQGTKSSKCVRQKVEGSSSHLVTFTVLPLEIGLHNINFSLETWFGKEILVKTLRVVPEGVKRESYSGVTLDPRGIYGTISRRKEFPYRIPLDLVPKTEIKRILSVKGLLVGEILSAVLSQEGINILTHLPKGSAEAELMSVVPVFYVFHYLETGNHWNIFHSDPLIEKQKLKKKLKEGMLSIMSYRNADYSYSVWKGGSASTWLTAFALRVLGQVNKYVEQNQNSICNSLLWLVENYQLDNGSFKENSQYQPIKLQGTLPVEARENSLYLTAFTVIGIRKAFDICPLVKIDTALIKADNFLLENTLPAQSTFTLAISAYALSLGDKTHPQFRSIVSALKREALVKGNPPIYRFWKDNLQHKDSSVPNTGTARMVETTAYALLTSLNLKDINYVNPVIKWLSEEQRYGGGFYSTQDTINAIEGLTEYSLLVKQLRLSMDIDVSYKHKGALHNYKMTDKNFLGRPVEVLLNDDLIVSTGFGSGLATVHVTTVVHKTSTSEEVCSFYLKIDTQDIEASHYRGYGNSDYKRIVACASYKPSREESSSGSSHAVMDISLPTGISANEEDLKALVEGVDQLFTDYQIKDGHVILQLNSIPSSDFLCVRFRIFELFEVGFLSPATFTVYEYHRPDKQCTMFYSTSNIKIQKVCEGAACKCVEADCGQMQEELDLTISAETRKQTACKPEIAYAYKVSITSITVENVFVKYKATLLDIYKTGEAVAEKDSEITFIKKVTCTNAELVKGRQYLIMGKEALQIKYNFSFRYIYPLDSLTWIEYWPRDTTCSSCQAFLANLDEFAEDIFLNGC
In words: Surface plasmon resonance (SPR), immobilized human C5 (Example 9, Table 18). It is filed as binding. The text has this:
Morrison and Boyd in “Organic Chemistry”, 6th edition, Prentice Hall (1992)] and validated for proper structure by mass spectrometry.

Where [1] appears, read: 0.5 nM purified human C5, absorbance 412 nm, read-out: RBC Hemolysis IC50.
[2] abbreviates: immobilized human C5, equilibrium dissociation constant, read-out: SPR C5 EQ KD.
Where [3] appears, read: 0.5 nM human C5, read-out: IC50.
Where [4] appears, read: SPR, human C5 immobilized, read-out: equilibrium dissociation constant for interaction with C5.

Sequence of purified human C5 (P01031 19-1676): as above

With `COc1ccc(OC)c(CNC(=O)Nc2ccc(OC)c(OCCCC(C)C)c2)c1` [Compound C5INH-0296], the IC50 on purified human C5 (setting [1]) was 680 nM. For the same molecule, the Kd at Human C5 (setting [2]) was found to be 20 nM.

Regarding `COCCOc1cc(CNC(=O)Nc2ccc(OC)c(OCCCC(C)C)c2)ccn1` [Compound C5INH-0381], the IC50 at purified human C5 (setting [1]) worked out at 1040 nM. In addition, the Kd at Human C5 (setting [2]) was 120 nM.

For `COc1cc(CN(C)C(C)=O)c(NC(=O)NCc2ccnc3[nH]ccc23)cc1OCCCC(C)C` [Compound C5INH-0527], the IC50 at purified human C5 (setting [1]) was 2270 nM. Further, the Kd at Human C5 (setting [2]) came out at 650 nM.

In the case of `COc1cc(CC(=O)O)c(NC(=O)N[C@H](CO)c2ccccc2)cc1OCCCC(C)C` [Compound C5INH-0355], the IC50 at purified human C5 (setting [1]) amounted to 2930 nM. For the same molecule, the Kd at Human C5 (setting [2]) turned out to be 441 nM.

For `COc1ccc(NC(=O)NCc2ccccc2N)cc1OCCCC(C)C` [Compound C5INH-0343], the IC50 at purified human C5 (setting [1]) was 3040 nM. On Human C5 (setting [2]), the Kd stood at 800 nM.

Regarding `COc1ccc(NC(=O)NCc2ccncc2OCCCN(C)C)cc1OCCCC(C)C` [Compound C5INH-0402], the IC50 on purified human C5 (setting [1]) amounted to 1340 nM. Further, the Kd at Human C5 (setting [2]) was 261 nM.

As for `COc1cccc(C2CCCN2C(=O)Nc2ccc(OC)c(OCCCC(C)C)c2)c1` (stereo not shown) [Compound C5INH-0388], at purified human C5 (setting [1]), the IC50 came to 970 nM. For the same molecule, the Kd on Human C5 (setting [2]) was 970 nM.

As to `COc1ccc(NC(=O)NCc2ccnc3c2ccn3C(C)=O)cc1OCCCC(C)C` [Compound C5INH-0436], the IC50 on purified human C5 (setting [1]) came to 1700 nM. Further, the Kd on Human C5 (setting [2]) was 510 nM.

Consider `COC(=O)c1cc(OC)c(OCCCC(C)C)cc1NC(=O)N[C@@H](CO)c1ccccc1` [Compound C5INH-0397], for which, at purified human C5 (setting [1]), the IC50 is 1380 nM. Further, the Kd at Human C5 (setting [2]) stood at 2060 nM.

In the case of `COc1ccc(NC(=O)NCc2ccnc3c2ccn3CC(=O)N2CCN(C)CC2)cc1OCCCC(C)C` [Compound C5INH-0526], the IC50 on purified human C5 (setting [1]) came to 31.5 nM. At Human C5 (setting [2]), the Kd was found to be 27 nM.

For the molecule `COc1ccc(NC(=O)NC(C(=O)O)c2cccc(OC)c2O)cc1OCCCC(C)C` (stereo not shown) [Compound C5INH-0501], the IC50 on purified human C5 (setting [1]) came to 468 nM. The Kd on Human C5 (setting [2]) turned out to be 330 nM.

Consider `COc1ccc(NC(=O)NCc2ccnc3c2ccn3CCCN)cc1OCCCC(C)C` [Compound C5INH-0544], for which the IC50 at purified human C5 (setting [1]) was 130 nM. Further, the Kd at Human C5 (setting [2]) turned out to be 210 nM.

Take `COc1ccc(NC(=O)NCc2cncs2)cc1OCCCC(C)C` [Compound C5INH-0329]: the 50% inhibitory concentration (IC50) on purified human C5 (setting [1]) amounted to 4010 nM. Also, at Human C5 (setting [2]), the Kd turned out to be 3200 nM.

`COc1ccc(NC(=O)NC(CO)c2cc(F)ccc2O)cc1OCCCC(C)C` (stereo not shown) [Compound C5INH-0315]: the IC50 at purified human C5 (setting [3]) was < 20 nM; at purified human C5 (setting [1]), 13.7 nM. Moreover, on Human C5 (setting [2]), the Kd is 50 nM.

Take `COc1ccc(NC(=O)NCc2ccnc(NCCN3CCOCC3)c2OC)cc1OCCCC(C)C` [Compound C5INH-0452]: the IC50 on purified human C5 (setting [1]) was 95.5 nM. Also, the Kd at Human C5 (setting [2]) turned out to be 59 nM.

On to `COCCOCCOc1cc(CNC(=O)Nc2ccc(OC)c(OCCCC(C)C)c2)ccn1` [Compound C5INH-0384], for which the IC50 on purified human C5 (setting [1]) turned out to be 2180 nM. Moreover, the Kd at Human C5 (setting [2]) stood at 810 nM.

In the case of `COc1ccc(NC(=O)N2CCc3ccc(O)cc3C2)cc1OCCCC(C)C` [Compound C5INH-0385], the half-inhibitory concentration (IC50) at purified human C5 (setting [1]) came to 1280 nM. Further, the Kd at Human C5 (setting [2]) worked out at 190 nM.

As to `COc1ccc(NC(=O)NC(CO)c2cccc3[nH]ncc23)cc1OCCCC(C)C` (stereo not shown) [Compound C5INH-0366], the IC50 at purified human C5 (setting [1]) came out at 762 nM. In addition, the Kd on Human C5 (setting [2]) turned out to be 82 nM.

In the case of `COc1ccc(NC(=O)NCc2ccnc3c2ccn3CCNS(C)(=O)=O)cc1OCCCC(C)C` [Compound C5INH-0409], at purified human C5 (setting [1]), the IC50 is 477 nM. Also, the Kd on Human C5 (setting [2]) worked out at 110 nM.

Take `COc1ccc(NC(=O)N[C@@H](CO)c2ccccc2)cc1OCCc1cccs1` [Compound C5INH-0349]: the IC50 at purified human C5 (setting [1]) stood at 1500 nM. Further, at Human C5 (setting [2]), the Kd worked out at 1210 nM.

Regarding `COc1cc(CCCCN(C)C)c(NC(=O)N[C@@H](CO)c2ccccc2OC)cc1OCCCC(C)C` [Compound C5INH-0539], the IC50 on purified human C5 (setting [1]) is 617 nM. Besides, the Kd at Human C5 (setting [2]) was 430 nM.

As to `COc1cc(CC(=O)N(C)C)c(NC(=O)N[C@@H](CO)c2ccccc2)cc1OCCCC(C)C` [Compound C5INH-0440], on purified human C5 (setting [1]), the IC50 was 3160 nM. On Human C5 (setting [2]), the Kd is 7600 nM.

Turning to `COc1ccc(NC(=O)NCc2ccnc3c2ccn3CC2CCCN2C)cc1OCCCC(C)C` (stereo not shown) [Compound C5INH-0545], the concentration for half-maximal inhibition (IC50) on purified human C5 (setting [1]) amounted to 89.5 nM. The Kd on Human C5 (setting [2]) worked out at 31 nM.

Consider `COc1ccc(NC(=O)NCc2ccnc(N)c2OC)cc1OCCCC(C)C` [Compound C5INH-0454], for which, on purified human C5 (setting [1]), the IC50 amounted to 301 nM. Besides, the Kd at Human C5 (setting [2]) worked out at 284 nM.

Take `COc1ccc(NC(=O)NCc2cccnc2OC)cc1OCCCC(C)C` [Compound C5INH-0310]: the IC50 at purified human C5 (setting [1]) was determined as 203 nM. Besides, the Kd on Human C5 (setting [2]) amounted to 40 nM.

Regarding `COc1ccc(NC(=O)NCc2ccnc(OCCN(C)C)c2)cc1OCCCC(C)C` [Compound C5INH-0383], the 50% inhibitory concentration (IC50) at purified human C5 (setting [1]) is 293 nM. For the same molecule, the Kd on Human C5 (setting [2]) was found to be 102 nM.

As for `COc1ccc(NC(=O)NCc2ncccc2OC)cc1OCCCC(C)C` [Compound C5INH-0417], the IC50 on purified human C5 (setting [1]) turned out to be 1130 nM. Moreover, the Kd on Human C5 (setting [2]) was 693 nM.

Regarding `COc1ccc(F)cc1CNC(=O)Nc1ccc(OC)c(OCCCC(C)C)c1` [Compound C5INH-0484], the IC50 at purified human C5 (setting [1]) was found to be 150 nM. The Kd on Human C5 (setting [2]) was determined as 770 nM.

`COc1ccc(CNC(=O)Nc2ccc(OC)c(OCCCC(C)C)c2)c(OC)c1` [Compound C5INH-0348]: the IC50 on purified human C5 (setting [1]) was 72.5 nM. Further, the Kd on Human C5 (setting [4]) is < 20 nM; at Human C5 (setting [2]), 10.2 nM.

In the case of `COc1ccc(CNC(=O)Nc2ccc(OC)c(OCCCC(C)C)c2)cn1` [Compound C5INH-0498], on purified human C5 (setting [1]), the IC50 was 4640 nM. Also, the Kd at Human C5 (setting [2]) was found to be 1480 nM.

Regarding `COc1cc(CNC(C)=O)c(NC(=O)NCc2ccnc3c2ccn3CCCN(C)C)cc1OCCCC(C)C` [Compound C5INH-0547], at purified human C5 (setting [1]), the IC50 came to 287 nM. Besides, at Human C5 (setting [2]), the Kd was 42 nM.

As to `COc1ccc(NC(=O)NCc2cccc3c2ccn3CC(=O)N(C)C)cc1OCCCC(C)C` [Compound C5INH-0516], the IC50 at purified human C5 (setting [1]) amounted to 127 nM. The values for the Kd on Human C5 (setting [4]) and on Human C5 (setting [2]) were < 20 nM and 16 nM, respectively.

As to `COc1ccc(NC(=O)N[C@@H](CO)c2ccccc2O)cc1OCCCC(C)C` [Compound C5INH-0395], the IC50 at purified human C5 (setting [3]) is < 20 nM; on purified human C5 (setting [1]) it was 13.6 nM. Moreover, the Kd is < 20 nM on Human C5 (setting [4]) and 9 nM at Human C5 (setting [2]).

`COc1ccc(NC(=O)NCc2ccc(N)nc2)cc1OCCCC(C)C` [Compound C5INH-0428]: the IC50 at purified human C5 (setting [1]) amounted to 3060 nM. The Kd at Human C5 (setting [2]) stood at 530 nM.

Consider `COc1ccc(NC(=O)NCc2ccc3c(ccn3CCN(C)C)c2)cc1OCCCC(C)C` [Compound C5INH-0414], for which the IC50 on purified human C5 (setting [1]) is 781 nM. At Human C5 (setting [2]), the Kd stood at 500 nM.

As for `COc1ccc(NC(=O)NC(CO)c2ccc3[nH]ccc3c2)cc1OCCCC(C)C` (stereo not shown) [Compound C5INH-0353], the IC50 at purified human C5 (setting [1]) turned out to be 328 nM. Also, on Human C5 (setting [2]), the Kd amounted to 580 nM.

Turning to `COc1ccc(NC(=O)NCc2ccnc3c2ccn3CC(=O)N(C)C)cc1OCCCC(C)C` [Compound C5INH-0538], on purified human C5 (setting [1]), the IC50 is 62.1 nM. For the same molecule, the Kd at Human C5 (setting [2]) came out at 79 nM.

For the molecule `COCc1cccc(CNC(=O)Nc2ccc(OC)c(OCCCC(C)C)c2)c1` [Compound C5INH-0502], the 50% inhibitory concentration (IC50) at purified human C5 (setting [1]) stood at 3090 nM. Also, on Human C5 (setting [2]), the Kd came out at 1910 nM.

With `COc1ccc(NC(=O)NCc2cccc3cccnc23)cc1OCCCC(C)C` [Compound C5INH-0450], on purified human C5 (setting [1]), the half-inhibitory concentration (IC50) was determined as 298 nM. Besides, at Human C5 (setting [2]), the Kd was determined as 885 nM.

With `COc1ccc(NC(=O)NCc2cccc3c2ncn3CCN(C)C)cc1OCCCC(C)C` [Compound C5INH-0536], on purified human C5 (setting [1]), the IC50 stood at 175 nM. Moreover, at Human C5 (setting [2]), the Kd is 32 nM.
